Source: patent US20190151277A1, “USES OF BIOACTIVE LIPIDS” (NESTEC S.A., priority 2014, published 2019)

How the values were obtained:
Format in all cases: cell-based
human islets [1] = assay: Acute insulin secretion assay with human islets from a lean non-diabetic donor; details: 2 mM and 20 mM glucose, 15-deoxy-Δ12,14-PGJ2-2-G at 250 μM
Procedure: Insulin secretion assay was performed in low glucose (2 mM) and high glucose (20 mM) conditions with human islets from a lean non-diabetic donor. […] Both bioactive lipids improved glucose stimulated insulin release acutely. The results are expressed as ng secreted insulin per 10 islets.

mouse islets = assay: GSIS in mouse islets after 72 hours treatment; details: 72 hours at 50 μM, 2 mM and 20 mM glucose
Procedure: (§1) After PGD2G treatment, glucose stimulated insulin release was measured in low glucose (2 mM) and high glucose (20 mM) conditions in KRB solution. The insulin release is expressed as released from the total content of insulin in Ins1E cells and mouse islets.

Ins1E cells = assay: GSIS in Ins1E cells after 72 hours treatment; details: 72 hours at 50 μM, 2 mM and 20 mM glucose
Procedure: as §1

[2] = Acute glucose stimulated insulin release normalized to total protein content; details: 2 mM and 20 mM glucose, 470 μM, 2.3 nM, 230 nM bioactive lipid
Procedure: Glucose stimulated insulin release was measured in low glucose (2 mM) and high glucose (20 mM) in the presence of various concentrations (470 μM, 2.3 nM, 230 nM) of the bioactive lipid. The bioactive lipid improved glucose stimulated insulin release particularly at concentrations from 2.5 nM to 250 nM. The result are presented as insulin release normalized to total protein content.

human islets [3] = assay: Beta cell function and incretin response in human islets from donors; details: lean type 2 diabetic and non-diabetic obese donors, 50 μM, 72 hours
Procedure: Glucose stimulated insulin release was measured in low glucose (2 mM), high glucose (20 mM) and high glucose (20 mM)+0.1 uM Exendin4

human islets [4] = assay: Glucose stimulated insulin release in human islets after cytokine-induced dysfunction; details: human islets of three donors, 50 μM 72 hours, cytokine mix last 48 hours
Procedure: During the last 48 hours, the cytokine mix was added (IL1beta 10 ng/ml, TNF alpha 25 ng/ml and INFgamma 10 ng/ml). Glucose stimulated insulin release was measured in low glucose (2 mM) and high glucose (20 mM) conditions. The bioactive lipid was able to improve glucose stimulated insulin release after cytokine-induced dysfunction.

human H716 cells = assay: GLP-1 secretion assay in human H716 cells; details: 0.23 nM to 2.3 nM
Procedure: GLP-1 secretion assay was performed using human H716 cells in the presence of various concentration of the bioactive lipid from 0.23 nM to 2.3 nM.

CCCCC/C=C/C=C1/C(=O)C=C[C@@H]1C/C=C\CCCC(=O)OC(CO)CO [15-deoxy-Δ12,14-PGJ2-2-G, 11-oxo-5Z,9,12E,4E-prostatetraenoic acid-2-glycerol ester]
insulin secretion (ng secreted insulin per 10 islets) (human islets [1]): increased insulin secretion both with and without the presence of a white adipose tissue (WAT) fraction

CCCCC[C@H](O)/C=C/[C@H]1C(=O)C[C@H](O)[C@@H]1C/C=C\CCCC(=O)OCC(O)CO (stereo partly drawn) [PGD2G, 9a, 15S-dihydroxy-11-oxo-5Z,13E-prostadienoic acid 1-glyceryl ester]
glucose stimulated insulin release (of total insulin content) (mouse islets): increased insulin secretion
glucose stimulated insulin release (of total insulin content) (Ins1E cells): increased insulin secretion
insulin release normalized to total protein content [2]: acutely stimulated insulin secretion upon stimulation with glucose
beta cell function (glucose stimulated insulin release) (human islets [3]): improved beta cell function
incretin response (20 mM glucose + 0.1 uM Exendin4) (human islets [3]): improved
glucose stimulated insulin release after cytokine-induced dysfunction (human islets [4]): protected human islets against cytokine induced dysfunction
GLP1 release normalized to total protein content (human H716 cells): increased GLP1 secretion
insulin secretion (ng secreted insulin per 10 islets) (human islets [1]): also increased insulin secretion compared to control tissues
